Literature values in patent US9062086B2, “N-acetyl L-cysteine chelates and methods for making and using the same” (Viva Pharmaceutical, Inc., priority 2013, dated 2015).

Experiments:
[1] = biological target: c-Glutamylcysteine synthetase (Homo sapiens, UniProt P48506); details: read-out: Ki (feedback inhibition by GSH); background statement
[2] = much higher than NAC; background statement

Chain of c-Glutamylcysteine synthetase (P48506 whole entry): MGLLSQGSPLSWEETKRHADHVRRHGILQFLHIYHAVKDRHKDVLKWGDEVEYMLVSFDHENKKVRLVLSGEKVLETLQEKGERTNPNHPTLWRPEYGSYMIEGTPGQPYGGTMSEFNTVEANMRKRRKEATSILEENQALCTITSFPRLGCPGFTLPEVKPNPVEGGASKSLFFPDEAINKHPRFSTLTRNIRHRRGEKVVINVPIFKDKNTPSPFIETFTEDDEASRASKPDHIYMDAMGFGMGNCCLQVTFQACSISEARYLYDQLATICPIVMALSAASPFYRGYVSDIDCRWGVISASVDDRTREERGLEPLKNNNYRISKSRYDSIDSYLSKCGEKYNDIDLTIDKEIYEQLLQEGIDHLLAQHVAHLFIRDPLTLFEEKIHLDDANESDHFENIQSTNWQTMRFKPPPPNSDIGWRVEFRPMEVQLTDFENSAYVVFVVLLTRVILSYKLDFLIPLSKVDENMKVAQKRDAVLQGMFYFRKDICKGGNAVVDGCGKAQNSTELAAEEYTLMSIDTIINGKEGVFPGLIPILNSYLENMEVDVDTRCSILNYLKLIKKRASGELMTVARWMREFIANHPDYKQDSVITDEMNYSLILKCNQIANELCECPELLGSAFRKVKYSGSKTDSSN

Ki [1] [µM]	bioavailability [2]	SMILES
~1500	–	N[C@@H](CCC(=O)N[C@@H](CS)C(=O)NCC(=O)O)C(=O)O [GSH, glutathione]
–	around 60%	CCOC(=O)[C@H](CS)NC(C)=O [NACET, N-acetylcysteine ethyl ester]
